# Measurements: patent US12319967B2, “Methods and compositions for diagnosing and treating prostate cancer based on long noncoding RNA overlapping the LCK gene that regulates prostate cancer cell growth” (University of Virginia Patent Foundation, priority 2019, dated 2025)
# Entries after “also recorded” stand apart in the source; their conditions may differ. Where a SMILES comes first, the peptide text is derived from it. The star is where a group is joined. Cbz = O=C(OCc1ccccc1)*
# Legend:
# Format in all cases: cell-based, human
# [1] = test system: HULLK; test: qPCR of HULLK (LCK 3'UTR / exon 13) transcript levels in response to hormone and AR, p300 or Brd4 inhibition
# Protocol: (§1) FIGS. 2A through 2E illustrate that HULLK is an AR-regulated lncRNA. […] LNCaP and C42 cells were transduced with two independent shRNAs to LCK and treated with 0-1 nM R1881. RNA was collected on Day 4 and LCK transcript levels were determined using LCK primers targeting the 3′UTR. […] LNCaP and C42 cells were seeded for 48 hrs, and then, treated with 1 nM R1881 in the presence or absence of 10 μM enzalutamide. RNA was collected 24 hrs after treatment and LCK transcript levels were determined by qPCR using LCK primers targeting the 3′UTR. C4-2, DU145, and PC3 cells were seeded in CSS media for 48 hrs, and then, treated with 1 nM R1881 for 16 hrs. RNA was collected and LCK transcript levels were determined using LCK primers targeting the 3′UTR. […] FIG. 2E illustrates that Brd4 inhibition reduces the hormone induction of HULLK, n=3. LNCaP, C42, or Jurkat cells were seeded for 48 hrs in the appropriate growth media, and then, treated with 1 nM R1881 in the presence or absence of 0.3 μM A-485 or 0.1 μM JQ1. RNA was collected 24 hrs after treatment and LCK transcript levels were determined by qPCR using LCK primers targeting exon 13 or 3′UTR. PSA and TMPRSS2 transcripts were determined to verify the efficacy of p300 and Brd4 inhibition.
# FIGS. 7A and 7B illustrate the regulation of HULLK by the AR in breast cancer cells. […] LNCaP, MCF7, BT549, and MDA-MD-231 cells were seeded in the appropriate growth media, and whole cell lysates were collected 48 hrs later and blotted for AR21 and ERK1/2. […] MCF7, BT549, and MDA-MB-231 cells were seeded in CSS media for 48 hrs, and then, treated with 1 nM R1881 for 16 hrs. RNA was collected and LCK transcript levels were determined using LCK primers targeting the 3′UTR, n=3.
# Cell Culture and Reagents. LNCaP and C4-2 cells (a gift from Dr. L. W. K. Chung) were grown in DMEM:F12 (Invitrogen) with 5% Non-Heat-Inactivated serum (Gemini) and 1% Insulin-Transferrin-Selenium-Ethanolamine (ThermoFisher). CWR22Rv1 (Rv1), VCaP, PC3 (gifts from Drs. Steven Balk, Karen Knudsen, and Chung, respectively), WMPY-1 (ATCC), MCF7, BT549 and MDA-MB-231 (gifts from Dr. Amy Bouton) were grown in DMEM (Invitrogen) with 10% Heat-Inactivated serum. DU145 (a gift from Dr. Chung), PANC1 (a gift from Dr. J. Thomas Parsons), HeLa and Jurkat cells (gifts from Dr. Tim Bender) were grown in RPMI-1640 (Invitrogen) with 10% Heat-Inactivated serum. LHS cells (a gift from Dr. William Hahn) were grown in ProstaLife Epithelial Cell Medium (Lifeline). RWPE-1 (ATCC) cells were grown in Keratinocyte-Serum-Free Media (Invitrogen). For growth and RNA experiments, phenol-red free DMEM:F12 media with 5% Charcoal-Stripped Serum (CSS) (Gemini) was used.
# RNA Isolation, qPCR and ddPCR: RNA was collected using TRIzol and quantitated using a NanoDrop 2000 UV-Vis Spectrophotometer (ThermoFisher). cDNA was synthesized using Superscript IV VILO cDNA synthesis kit (Invitrogen). Quantitative real-time PCR (qPCR) was performed as previously described (17,18). Droplet digital PCR (ddPCR) was executed according to the manufacturer's protocol (Bio-Rad).
# To assess whether this lncRNA is modulated by hormone, transcript levels of this lncRNA were quantified by qPCR using 3′UTR primers in LNCaP and C4-2 cells transduced in the presence of increasing concentrations of R1881 (FIG. 2A). […] This increase was inhibited in the presence of two independent LCK shRNAs in both cell lines.
# This hormone regulation was confirmed by measuring transcript amounts in LNCaP and C4-2 cells treated with vehicle or R1881 in the presence or absence of the anti-androgen enzalutamide (FIG. 2B). As expected, there was an 8-fold and 12-fold R1881-induced increase in LCK 3′UTR transcript levels in LNCaP and C4-2 cells, respectively. […] Androgen deprivation influenced message levels negligibly in LNCaP cells, but decreased transcript amounts of this lncRNA by approximately 2.9-fold in C4-2 cells (FIG. 2B, C4-2 vehicle vs. media). […]
# [2] = test system: LNCaP, C4-2, and Rv1 cells; test: CyQuant growth assay 7 days after viral transduction; conditions: day 7; for effect on cell growth: absence of hormone, Rv1 cells
# Source text: FIG. 5A illustrates the gene structure of LCK and location of each shRNA targeting LCK. MISSION shRNAs targeting human LCK (NM_005356) and the pLKO vector control were purchased from ThermoFisher. Each shRNA was validated for efficiency of LCK or HULLK knockdown in Jurkat and PCa cells by qPCR. (C) The results of CyQuant Assay measuring DNA content as a surrogate for cell number 7 days after shRNA transduction is shown in FIG. 5C. Growth was compared to untreated empty vector control and the values were averaged across biological replicates. Error bars represent standard error of the mean. The relative effect of four independent shRNAs on cell growth in LNCaP, C42, and Rv1 cells in the absence or presence of 0.05 nM R1881, n=3. FIG. 5D plots the data for the relative effect of HULLK overexpression on cell growth in LNCaP, C42, and Rv1 cells in the absence or presence of 0.05 nM R1881, n=3. Statistical analysis was performed using ANOVA and Tukey test.
# CyQuant Growth Assays: Assay was performed as previously described (18). Briefly, shRNA or pLKO control virus was added to 1 μg/ml fibronectin-coated 96 well plates. Cells were plated in RPMI-1640 plus 5% CSS with vehicle, 0-0.05 nM R1881, and/or 10 μM Enzalutamide (Selleck Chemicals). Quantification was performed on Day 7 using a BioTek Synergy 2 plate reader.
# To explore the functional role of HULLK in PCa, the effects of HULLK knockdown on PCa cell growth was examined. LNCaP, C4-2, and Rv1 cells were transduced with lentiviral particles expressing four independent shRNAs specific for LCK or pLKO empty vector control in the presence or absence of 0.05 nM R1881. Two shRNAs were targeting the carboxy-terminal of LCK (shLCK-3 and shLCK-4) and should decrease HULLK levels; and two shRNAs were directed toward the amino-terminal (shLCK-1 and shLCK-2) and should not affect HULLK expression (FIG. 5A). […] As a control, all four shRNAs efficiently knocked LCK down 60-90% in Jurkat cells. Seven days following viral transduction, cellular growth was measured using CyQuant, which uses DNA content as a surrogate for cell number. In the absence of hormone, the four shRNAs had no dramatic effects on growth in LNCaP or C4-2 cells (FIG. 5C).
# The complement experiment of evaluating the effects of overexpressing HULLK on cell growth was also performed. LNCaP, C4-2, and Rv1 cells were transduced with lentivirus expressing either vector or HULLK constructs in the presence or absence of 0.05 nM R1881, and proliferation was calculated seven days following viral transduction.
# [3] = test system: PSA and TMPRSS2 transcripts; test: qPCR of PSA and TMPRSS2 transcripts to verify efficacy of p300 inhibition; conditions: 0.3 μM A-485 + 1 nM R1881
# Protocol: as §1, with “inhibition. […]” for “inhibition.”
# [4] = test system: p53; test: Western blot after proteasome inhibition with MG132; conditions: LNCaP cells; 10 μM MG132
# Protocol: (§2) FIGS. 1A to 1D illustrate the discovery of a novel lncRNA in prostate cancer cells. […] LCK protein was immunoprecipitated from 1 mg cell lysate from LNCaP, C4-2, and Jurkat cells cultured in the appropriate growth media for 48 hrs and treated with 1 nM R1881 or starved of hormone for 24 hrs, separated by 10% SDS-PAGE, and immunoblotted with LCK antibodies targeting the amino- and carboxy-terminals. Representative blots are shown, n=3. […] LNCaP cells were seeded and treated with 10 μM MG132 in the presence or absence of R1881 for the indicated timepoints. Cell lysates were blotted for LCK (c-terminal), LCK (n-terminal), p53, ERK1/2, Ran, and Histone H3. Representative blots are shown, n=3. Representative gel is shown, n=3. LNCaP cells were grown in the absence or presence of 1 nM R1881 for 24 hrs. RNA was collected using the Qiagen RNeasy kit. […]
# (§3) To determine whether the lack of LCK expression was due to proteasomal degradation, LCK protein levels were examined in the presence of the proteasome inhibitor MG132 (FIG. 18). […] Furthermore, no truncated forms of LCK were detected when the whole western blot membrane was probed from 75 kD to 10 kD with either c- or n-terminal LCK antibodies. […] Therefore, a ncRNA may play a role in the growth effects measured in the kinome screen.
# [5] = test system: LCK protein; test: Western blot for LCK protein after proteasome inhibition with MG132; conditions: LNCaP cells treated with FBS, CSS, or 1 nM R1881; 10 μM MG132; any timepoint
# Protocol: as §2, §3
# [6] = test system: AR; test: AR protein and message levels 48 hrs after HULLK knockdown or overexpression; conditions: LNCaP and C4-2 cells; 48 hrs after transduction
# Protocol: LNCaP and C4-2 cells were transduced with vector, shLCK (n-term), or shLCK (c-term) in the appropriate growth media, and whole cell lysates were collected 48 hrs later and blotted for AR21 and ERK1/2, n=3. […] LNCaP and C4-2 cells were transduced with vector or HULLK in the appropriate growth media, and whole cell lysates were collected 48 hrs later and blotted for AR21 and α-tubulin, n=3. RNA was collected and AR transcript levels were determined using AR primers targeting the DNA binding domain, n=3.
# Conversely, studies were conducted to determine whether HULLK modulates AR expression. LNCaP and C4-2 cells were transduced with vector, HULLK, or shRNAs targeting LCK (n-term) (FL-LCK) or LCK (c-term) (HULLK), and AR protein and message levels were examined 48 hrs after transduction.
compound,measurement,setting,value
CNC(=O)c1ccc(N2C(=S)N(c3ccc(C#N)c(C(F)(F)F)c3)C(=O)C2(C)C)cc1F [Enzalutamide],effect on hormone-mediated increase in LCK 3'UTR transcript (HULLK),"[1]; LNCaP and C4-2 cells, 1 nM R1881 + 10 μM enzalutamide, 24 hrs",blocked the hormone-mediated increase; also recorded: blocks the androgen-induced expression of HULLK
"shLCK-3: shRNA targeting the carboxy-terminal of LCK (HULLK), nucleotide sequence SEQ ID NO: 25 (CCGGGGGATCCTGCTGACGGAAATTCTCGAGAATTTCCGTCAGCAGGATCCCTTTTTG)",effect on cell growth,[2],statistically significant decrease
"shLCK-4: shRNA targeting the carboxy-terminal of LCK (HULLK), nucleotide sequence SEQ ID NO: 26 (CCGGTCACATGGCCTATGCACATATCTCGAGATATGTGCATAGGCCATGTGATTTTTG)",effect on cell growth,[2],statistically significant decrease
CNC(=O)Nc1ccc2c(c1)CC[C@@]21OC(=O)N(CC(=O)N(Cc2ccc(F)cc2)[C@@H](C)C(F)(F)F)C1=O [A-485],effect on hormone-induced increase in HULLK transcript levels,"[1]; 0.3 μM A-485 + 1 nM R1881, 24 hrs",significantly opposed the hormone-induced increase
same,"effect on HULLK expression, inhibitor alone","[1]; 0.3 μM A-485 without R1881, LNCaP, C4-2, Jurkat cells",negligible effects
same,PSA and TMPRSS2 message in the presence of hormone and p300 inhibitor,[3],sufficiently blocking its target
CC(C)C[C@@H](C=O)NC(=O)[C@H](CC(C)C)NC(=O)[C@H](CC(C)C)NC(=O)OCc1ccccc1 [MG132] (Cbz-Leu-Leu-Leu-aldehyde),p53 protein level,[4],elevated
same,LCK protein detection,[5],still not observed
"HULLK: Hormone Upregulated lncRNA within LCK, overexpressed from lentiviral expression vector PLX301",AR expression after overexpression of HULLK,[6],not notably altered
same,proliferation of HULLK-overexpressing cells compared to vector control cells,"[2]; 0.05 nM R1881, LNCaP, C4-2, and Rv1 cells",significantly increased proliferation
same,growth of HULLK-overexpressing cells versus vector-expressing cells,"[2]; androgen-deprived media, LNCaP, C4-2, and Rv1 cells",did not provide a growth advantage
Cc1sc2c(c1C)C(c1ccc(Cl)cc1)=N[C@@H](CC(=O)OC(C)(C)C)c1nnc(C)n1-2 [JQ1],HULLK expression in the presence of hormone and JQ1 compared to hormone alone,"[1]; 0.1 μM JQ1 + 1 nM R1881, 24 hrs",significantly decreased
